This note sets out measurements from publication PMC9218685, “Legume Plant Peptides as Sources of Novel Antimicrobial Molecules Against Human Pathogens” (Frontiers in Molecular Biosciences, 2022).

Values after ≈ are worked out from the molar mass of the structure shown. “Also recorded” adds a separate entry of the source. Ends that are not written are not given here. Peptide text beside a SMILES is read from it.

Holding throughout (assay type): cell-based
Test [1] relates to Listeria monocytogenes (ATCC 19111). To be noted: for MBC Listeria monocytogenes: ATCC 19111, 3 h; for Activity against L. monocytogenes: 3 h, ~10^7 log phase bacteria, peptides ≤25 µM. From the text: (§1) The following pathogenic bacterial strains were used: The Gram-positive Enterococcus faecalis (ATCC 29212), Staphylococcus aureus (HNCMO112011), Listeria monocytogenes (ATCC 19111) and the Gram-negative Pseudomonas aeruginosa (ATCC 27853), Escherichia coli (ATCC 8739), Salmonella enterica (ATCC 13076), Klebsiella pneumoniae (NCTC 13440), Acinetobacter baumannii (ATCC 17978) obtained from the ATCC (United States) and NCTC (National Collection of Type Cultures–England). For the antifungal experiment the Candida albicans W01 strain ([Ördögh et al., 2014]) was used. Antimicrobial activities of peptides against ∼10^7 log phase bacteria were tested in Potassium-Phosphate Buffer (PPB, pH 7.4) as described by [Jenei et al. (2020)] while anti-Candida assays were done according to [Szerencsés et al. (2021)]. The two-fold dilution series of peptides ranged from 25 μM to 0.125 μM, while that of the antibiotics ampicillin (Merck) and miconazole (Duchefa Biochemie) from […] to 0.1 μM. The lowest concentration of the antimicrobial agents, which completely eliminated viable bacteria or C. albicans were considered as the minimal bactericidal concentration (MBC) and minimal fungicidal concentration (MFC).
(§2) The minimal bactericidal concentrations (MBCs) were determined after 3 h of treatment of ∼10^7 log phase bacteria with 2-fold serial dilution of peptides from 25 µM to 0.8 µM. Only 25 of the 50 cationic M. truncatula peptides had activity at ≤25 µM (Supplementary Table S1). […] Three peptides were only active against two bacterial strains; NCR649 against L. monocytogenes and A. baumannii, NCR281 against L. monocytogenes and P. aeruginosa and NCR350 against A. baumannii and P. aeruginosa. […] None of the anionic NCR peptides affected the survival of the tested bacterial strains.

Test [2] has as its system Pseudomonas aeruginosa (ATCC 27853). To be noted: for MBC Pseudomonas aeruginosa: ATCC 27853, 3 h; for Activity against P. aeruginosa: 3 h, ~10^7 log phase bacteria, peptides ≤25 µM.
Excerpt: as §1, §2

Test [3] relates to Escherichia coli (ATCC 8739). To be noted: for MBC Escherichia coli: ATCC 8739, 3 h.
Excerpt: as §1, §2

The subject of test [4] is Enterococcus faecalis (ATCC 29212). To be noted: for Ability to kill E. faecalis: 3 h, ~10^7 log phase bacteria, peptides ≤25 µM.
Excerpt: as §1, §2

For test [5], the system named is Candida albicans W01 strain. The test can be described thus: microbe, parasite or virus in culture. To be noted: Candida albicans, W01STRAIN; C. albicans W01, two-fold dilution series; lowest concentration completely eliminating viable C. albicans; read-out: MFC, minimal fungicidal concentration against C. albicans.
Excerpt: as §1

For test [6], the system named is Acinetobacter baumannii (ATCC 17978). Briefly: microbe, parasite or virus in culture. To be noted: for Activity against A. baumannii: 3 h, ~10^7 log phase bacteria, peptides ≤25 µM.
Excerpt: as §1, §2

Test [7] deals with E. coli, S. enteritidis, P. aeruginosa, L. monocytogenes, S. aureus, E. faecalis, K. pneumoniae and A. baumannii. Briefly: Antimicrobial activity assay, spectrum over the eight tested pathogenic bacteria. To be noted: 3 h treatment of ~10^7 log phase bacteria, peptides 25 to 0.8 µM; active = MBC ≤25 µM.
Excerpt: as §1
We investigated the antimicrobial activity of 78 NCR peptides from M. truncatula and 12 NCRs from other IRLC legumes as well as their shorter derivatives against E. coli, S. enteritidis, P. aeruginosa, L. monocytogenes, S. aureus, E. faecalis, K. pneumoniae and A. baumannii (Supplementary Table S1). In the selection of the M. truncatula peptides, we considered their symbiotic expression levels but also their physicochemical properties. The antimicrobial activity of NCRs has so far been attributed to cationic peptides, with the exception of one anionic peptide. To investigate whether other anionic NCRs are antimicrobial, in addition to the cationic peptides, neutral and anionic NCRs were also included covering a broad range of peptides with different net charges (NC: from 7.8 to −10.2) and isoelectric points (pI: from 10.69 to 2.95). 50 peptides had positive net charge and pI > 7.0, while 28 peptides had negative net charge and pI < 7.0 (Supplementary Table S1A). Of the other legumes, only cationic NCR peptides were studied (Supplementary Table S1B).
as §2

As for `CC(C)C[C@H](NC(=O)[C@H](CS)NC(=O)[C@H](CCCCN)NC(=O)CNC(=O)[C@@H](N)Cc1ccccc1)C(=O)N[C@@H](CCCCN)C(=O)N[C@@H](CC(C)C)C(=O)N[C@@H](CCCCN)C(=O)N[C@@H](CS)C(=O)N[C@H](C(N)=O)C(C)C` [GoNCR308 (16-25)] (H-FGKCLKLKCV-NH2; N-terminus assumed), the “MBC Listeria monocytogenes” value in test [1] was 12.5 µM (≈ 14.2 µg/mL). Also, the “MBC Pseudomonas aeruginosa” value in test [2] is recorded as 12.5 µM (≈ 14.2 µg/mL). Also, the “MBC Escherichia coli” value in test [3] was 25 µM (≈ 28.4 µg/mL).
For the molecule `CC[C@H](C)[C@H](N)C(=O)N[C@H](C(=O)N[C@H](C(=O)N[C@@H](CC(N)=O)C(=O)N[C@@H](CCCNC(=N)N)C(=O)N[C@@H](CCCNC(=N)N)C(=O)N[C@@H](CS)C(=O)N[C@@H](CCCCN)C(=O)N[C@@H](CO)C(=O)N[C@@H](Cc1c[nH]cn1)C(=O)N[C@@H](CCCCN)C(=O)N[C@@H](CC(=O)O)C(=O)N[C@@H](CS)C(=O)N1CCC[C@H]1C(=O)NCC(=O)N[C@@H](Cc1ccccc1)C(=O)NCC(=O)N[C@@H](CCCCN)C(=O)N[C@@H](CS)C(=O)N[C@@H](CC(C)C)C(=O)N[C@@H](CCCCN)C(=O)N[C@@H](CC(C)C)C(=O)N[C@@H](CCCCN)C(=O)N[C@@H](CS)C(=O)N[C@H](C(=O)N[C@@H](Cc1ccc(O)cc1)C(=O)N[C@H](C(=O)N1CCC[C@H]1C(=O)N[C@@H](CCCCN)C(=O)N[C@@H](CCCNC(=N)N)C(=O)O)[C@@H](C)O)C(C)C)[C@@H](C)O)[C@@H](C)CC` [GoNCR308] (H-IITNRRCKSHKDCPGFGKCLKLKCVYTPKR-OH; N-terminus assumed), the “Ability to kill E. faecalis” value in test [4] was “able to kill”.
For the molecule `Clc1ccc(COC(Cn2ccnc2)c2ccc(Cl)cc2Cl)c(Cl)c1` (stereo not shown) [Miconazole, reference compound], in test [5], the MFC worked out at 50600 µM (≈ 21000 µg/mL).
As for `CC[C@H](C)[C@H](NC(=O)[C@H](Cc1ccc(O)cc1)NC(=O)[C@H](C)N)C(=O)N[C@@H](CCC(=O)O)C(=O)N[C@@H](CS)C(=O)N[C@@H](CCC(=O)O)C(=O)N[C@H](C(=O)N[C@@H](CC(=O)O)C(=O)N[C@@H](CC(=O)O)C(=O)N[C@@H](CC(=O)O)C(=O)N[C@@H](CS)C(=O)N1CCC[C@H]1C(=O)N[C@@H](CCCCN)C(=O)N1CCC[C@H]1C(=O)N[C@@H](CCSC)C(=O)N[C@@H](CCCCN)C(=O)N[C@@H](CC(N)=O)C(=O)N[C@@H](CO)C(=O)N[C@@H](Cc1c[nH]cn1)C(=O)N1CCC[C@H]1C(=O)N[C@@H](CC(=O)O)C(=O)N[C@H](C(=O)N[C@@H](Cc1ccc(O)cc1)C(=O)N[C@@H](Cc1ccc(O)cc1)C(=O)N[C@@H](CCCCN)C(=O)N[C@@H](CS)C(=O)N[C@H](C(=O)N[C@@H](CCCCN)C(=O)N[C@@H](Cc1c[nH]cn1)C(=O)N[C@@H](CCCNC(=N)N)C(=O)N[C@@H](CS)C(=O)N[C@@H](CCC(N)=O)C(=O)N[C@@H](Cc1c[nH]c2ccccc12)C(=O)N[C@@H](C)C(=O)N[C@@H](Cc1c[nH]c2ccccc12)C(=O)N[C@@H](CCCCN)C(=O)O)C(C)C)[C@@H](C)O)C(C)C` [NCR147] (H-AYIECEVDDDCPKPMKNSHPDTYYKCVKHRCQWAWK-OH; N-terminus assumed), the “Activity against A. baumannii” value in test [6] was “showed activity”. In addition, in test [6] (ATCC 17978, 3 h), the “MBC Acinetobacter baumannii” value was determined as 3.125 µM (≈ 13.7 µg/mL). In test [1], the “Activity against L. monocytogenes” value is “showed activity” and the “MBC Listeria monocytogenes” value turned out to be 12.5 µM (≈ 54.9 µg/mL). In test [2], the “Activity against P. aeruginosa” value is reported as “showed activity” and the “MBC Pseudomonas aeruginosa” value stood at 12.5 µM (≈ 54.9 µg/mL). Also, the “Activity against E. coli” value in test [3] (3 h, ~10^7 log phase bacteria, peptides ≤25 µM) is given as “showed activity”. Moreover, in test [3], the “MBC Escherichia coli” value was 25 µM (≈ 110 µg/mL).
Regarding `CC[C@H](C)[C@H](NC(=O)CNC(=O)[C@H](CCC(N)=O)NC(=O)[C@@H](NC(=O)[C@H](CS)NC(=O)[C@H](CCCNC(=N)N)NC(=O)[C@H](CC(C)C)NC(=O)[C@H](CCCNC(=N)N)NC(=O)[C@H](CCCNC(=N)N)NC(=O)[C@H](CC(N)=O)NC(=O)[C@@H](NC(=O)[C@H](Cc1ccc(O)cc1)NC(=O)[C@H](CCSC)NC(=O)[C@@H]1CCCN1C(=O)[C@H](Cc1ccc(O)cc1)NC(=O)[C@H](CC(C)C)NC(=O)[C@@H](NC(=O)[C@H](CC(N)=O)NC(=O)[C@H](CS)NC(=O)[C@H](CC(=O)O)NC(=O)[C@@H](NC(=O)[C@H](CC(=O)O)NC(=O)[C@H](CO)NC(=O)[C@@H](NC(=O)[C@H](CS)NC(=O)[C@H](CCC(=O)O)NC(=O)[C@@H](N)CO)[C@@H](C)CC)[C@@H](C)O)C(C)C)[C@@H](C)CC)[C@@H](C)CC)C(=O)N[C@@H](CS)C(=O)N[C@@H](Cc1c[nH]cn1)C(=O)N[C@H](C(=O)N[C@H](C(=O)N[C@H](C(=O)N[C@@H](C)C(=O)N[C@@H](CCCNC(=N)N)C(=O)N[C@@H](CCCNC(=N)N)C(=O)N[C@@H](CCCNC(=N)N)C(=O)O)[C@@H](C)O)[C@@H](C)O)[C@@H](C)O` [NCR299] (H-SECISDTDCNVLYPMYINRRLRCIQGICHTTTARRR-OH; N-terminus assumed), the “MBC Listeria monocytogenes” value in test [1] was 12.5 µM (≈ 53.2 µg/mL). The “MBC Pseudomonas aeruginosa” value in test [2] was determined as 3.125 µM (≈ 13.3 µg/mL). In addition, in test [3], the “MBC Escherichia coli” value amounted to 12.5 µM (≈ 53.2 µg/mL). The “Ability to kill E. faecalis” value in test [4] was “able to kill”. Moreover, in test [4] (ATCC 29212, 3 h), the “MBC Enterococcus faecalis” value is recorded as 12.5 µM (≈ 53.2 µg/mL). In test [7], the “Antibacterial spectrum over the eight tested bacterial strains” value was “effective against five or four strains”.
As to `CC[C@H](C)[C@H](NC(=O)[C@@H]1CCCN1C(=O)[C@H](CC(C)C)NC(=O)[C@H](CS)NC(=O)[C@H](CCCCN)NC(=O)[C@H](CS)NC(=O)[C@H](CCSC)NC(=O)[C@H](CCCNC(=N)N)NC(=O)[C@H](CCCNC(=N)N)NC(=O)[C@@H](NC(=O)[C@H](CS)NC(=O)[C@H](CCCNC(=N)N)NC(=O)[C@@H]1CCCN1C(=O)[C@H](CCC(=O)O)NC(=O)[C@H](CCSC)NC(=O)CNC(=O)[C@@H]1CCCN1C(=O)[C@@H]1CCCN1C(=O)[C@H](CS)NC(=O)[C@H](CCSC)NC(=O)[C@H](Cc1c[nH]cn1)NC(=O)[C@@H]1CCCN1C(=O)[C@@H]1CCCN1C(=O)[C@H](CS)NC(=O)[C@H](Cc1c[nH]cn1)NC(=O)[C@H](CO)NC(=O)[C@H](CC(=O)O)NC(=O)[C@@H](NC(=O)[C@@H](NC(=O)[C@H](CS)NC(=O)[C@H](CC(C)C)NC(=O)[C@@H](N)Cc1ccc(O)cc1)C(C)C)[C@@H](C)O)C(C)C)C(=O)NCC(=O)N[C@@H](Cc1c[nH]c2ccccc12)C(=O)N[C@@H](CCCNC(=N)N)C(=O)N[C@@H](CCCCN)C(=O)N[C@@H](Cc1ccc(O)cc1)C(=O)N[C@@H](Cc1ccccc1)C(=O)N[C@H](C(=O)N1CCC[C@H]1C(=O)O)C(C)C` [NCR336] (H-YLCVTDSHCPPHMCPPGMEPRCVRRMCKCLPIGWRKYFVP-OH; N-terminus assumed), the “Ability to kill E. faecalis” value in test [4] is recorded as “able to kill”. The “Antibacterial spectrum over the eight tested bacterial strains” value in test [7] is given as “capable of killing all tested bacteria; also recorded: active against all the eight tested pathogens”.
In the case of `CC(C)C[C@H](NC(=O)[C@H](CS)NC(=O)[C@@H](NC(=O)[C@H](CS)NC(=O)[C@H](CCCCN)NC(=O)[C@@H](NC(=O)[C@@H](NC(=O)[C@H](CCC(=O)O)NC(=O)[C@@H]1CCCN1C(=O)[C@@H]1CCCN1C(=O)[C@@H](NC(=O)[C@H](CS)NC(=O)[C@H](CCCCN)NC(=O)[C@H](CC(C)C)NC(=O)[C@@H](NC(=O)[C@@H](N)CCCCN)C(C)C)[C@@H](C)O)C(C)C)C(C)C)[C@@H](C)O)C(=O)N[C@@H](CS)C(=O)NCC(=O)N[C@@H](CCCCN)C(=O)N[C@@H](CCCNC(=N)N)C(=O)N[C@H](C(=O)N[C@@H](CC(C)C)C(=O)N[C@@H](Cc1ccc(O)cc1)C(=O)O)[C@@H](C)O` [NCR649] (H-KVLKCTPPEVVKCTCLCGKRTLY-OH; N-terminus assumed), the “Activity against A. baumannii” value in test [6] is recorded as “active”. In test [1], the “Activity against L. monocytogenes” value is listed as “active”.
Turning to “GRYTTPWCVRDIDCPKEKCKHPFKPRCLTHSCVCRLWGSQDVI-OH (cysteines drawn unpaired) [NCR281]”, the “Activity against L. monocytogenes” value in test [1] is given as “active”. In test [2], the “Activity against P. aeruginosa” value was “active”.
